This note sets out measurements from ChEMBL document CHEMBL5244281, “Tackling multidrug-resistant Staphylococcus aureus by natural products and their analogues acting as NorA efflux pump inhibitors” (Bioorg Med Chem, 2023).

In assay [1] the test system is Staphylococcus aureus. Kind of assay: Antibacterial activity against methicillin-resistant Staphylococcus aureus clinical isolate assessed as bacterial growth inhibition by broth dilution method. It is filed as functional.
For assay [2], the target named is T1, Quinolone resistance protein NorA (Staphylococcus aureus) (UniProt P0A0J7).
T1 sequence (whole entry): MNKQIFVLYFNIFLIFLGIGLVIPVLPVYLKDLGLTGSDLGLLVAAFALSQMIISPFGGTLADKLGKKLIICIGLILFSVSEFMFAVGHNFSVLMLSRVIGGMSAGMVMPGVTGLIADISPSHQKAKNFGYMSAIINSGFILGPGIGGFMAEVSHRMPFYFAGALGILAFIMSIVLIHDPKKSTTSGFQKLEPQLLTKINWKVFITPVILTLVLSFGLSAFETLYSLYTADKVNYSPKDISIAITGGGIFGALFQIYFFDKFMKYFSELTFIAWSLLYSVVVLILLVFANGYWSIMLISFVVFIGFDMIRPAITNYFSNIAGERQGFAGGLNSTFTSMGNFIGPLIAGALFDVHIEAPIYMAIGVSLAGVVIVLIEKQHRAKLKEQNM
Kind of assay: Inhibition of NorA efflux pump in methicillin-resistant Staphylococcus aureus clinical isolate assessed as EtBr MIC using EtBr as substrate at 64 ug/ml and measured for 20 mins by spectrofluorimetric analysis (Rvb=[…] ug/ml). Conditions: dose 64.0 µg/ml.

Assay [3] relates to Staphylococcus aureus. Nature of the assay: Synergistic antibacterial activity against methicillin-resistant Staphylococcus aureus clinical isolate assessed as fractional inhibitory concentration index in presence of ciprofloxacin by checkerboard assay. It is filed as functional.
Assay [4] concerns the target T1, Quinolone resistance protein NorA (Staphylococcus aureus). Kind of assay: Inhibition of NorA efflux pump in methicillin-resistant Staphylococcus aureus clinical isolate assessed as decrease in ciprofloxacin MIC and measured for 20 mins in presence of ciprofloxacin by spectrofluorimetric analysis (Rvb=128 ug/ml).
Assay [5] deals with Staphylococcus aureus. Nature of the assay: Antibacterial activity against Staphylococcus aureus 1199B overexpressing NorA efflux protein assessed as bacterial growth inhibition incubated for 24 hrs by microdilution method. In kind it is functional.
For assay [6], the system named is Staphylococcus aureus. Nature of the assay: Antibacterial activity against wild type Staphylococcus aureus ATCC 25923 assessed as bacterial growth inhibition incubated for 24 hrs by microdilution method. In kind it is functional.
The test system of assay [7] is Escherichia coli. Kind of assay: Antibacterial activity against Escherichia coli ATCC 25922 assessed as bacterial growth inhibition incubated for 24 hrs by microdilution method. It is filed as functional.
In assay [8] the test system is Candida albicans. Nature of the assay: Antimicrobial activity against Candida albicans ATCC 10231 assessed as […] growth inhibition incubated for 24 hrs by microdilution method. In kind it is functional.
Assay [9] addresses T1, Quinolone resistance protein NorA (Staphylococcus aureus). Kind of assay: Potentiation of ciprofloxacin-induced inhibition of NorA efflux pump in Staphylococcus aureus 1199B overexpressing NorA efflux pump assessed as ciprofloxacin MIC at 100 ug/ml for 18 to 20 hrs by checkerboard method (Rvb=4 ug/ml). The following applies: dose 100.0 µg/ml, time 18-20 hrs.
The target is the same in assay [10]. Nature of the assay: Potentiation of ciprofloxacin-induced inhibition of NorA efflux pump in Staphylococcus aureus 1199 assessed as ciprofloxacin MIC at 100 ug/ml for 18 to 20 hrs by checkerboard method (Rvb=0.25 ug/ml). Conditions: dose 100.0 µg/ml, time 18-20 hrs.
Assay [11] shares this target. Kind of assay: Inhibition of NorA efflux pump in Staphylococcus aureus 1199B overexpressing NorA efflux pump assessed as minimum effective concentration for 18 to 20 hrs. The following applies: time 18-20 hrs.
For assay [12], the system named is Escherichia coli. Kind of assay: Antibacterial activity against Escherichia coli 06 assessed as bacterial growth inhibition incubated for 24 hrs by broth microdilution method. It is filed as functional.
The test system of assay [13] is Pseudomonas aeruginosa. Kind of assay: Antibacterial activity against Pseudomonas aeruginosa 24 assessed as bacterial growth inhibition incubated for 24 hrs by broth microdilution method. It is filed as functional.
In assay [14] the test system is Staphylococcus aureus. Kind of assay: Antibacterial activity against Staphylococcus aureus 10 assessed as bacterial growth inhibition incubated for 24 hrs by broth microdilution method. It is filed as functional.
Assay [15] deals with Staphylococcus aureus. Kind of assay: Antimicrobial activity against Staphylococcus aureus ATCC 29213 assessed as bacterial growth inhibition incubated for 18 hrs by broth microdilution assay. In kind it is functional.
Assay [16] deals with Staphylococcus aureus. Kind of assay: Antimicrobial activity against Staphylococcus aureus ATCC 43300 assessed as bacterial growth inhibition incubated for 18 hrs by broth microdilution assay. It is filed as functional.
Assay [17] concerns Staphylococcus aureus. Kind of assay: Antimicrobial activity against Staphylococcus aureus BAA-44 assessed as bacterial growth inhibition incubated for 18 hrs by broth microdilution assay. In kind it is functional.
In assay [18] the test system is Escherichia coli. Nature of the assay: Antimicrobial activity against Escherichia coli ATCC 25922 assessed as bacterial growth inhibition incubated for 18 hrs by broth microdilution assay. It is filed as functional.
Assay [19] has as its system Enterococcus faecalis. Nature of the assay: Antimicrobial activity against Enterococcus faecalis ATCC 29212 assessed as bacterial growth inhibition incubated for 18 hrs by broth microdilution assay. In kind it is functional.
Assay [20] deals with Enterococcus faecium. Nature of the assay: Antimicrobial activity against Enterococcus faecium ATCC 700221 assessed as bacterial growth inhibition incubated for 18 hrs by broth microdilution assay. It is filed as functional.
The test system of assay [21] is Klebsiella pneumoniae. Nature of the assay: Antimicrobial activity against Klebsiella pneumoniae 1213-2 assessed as bacterial growth inhibition incubated for 18 hrs by broth microdilution assay. It is filed as functional.
Assay [22] relates to Staphylococcus aureus. Kind of assay: Antibacterial activity against norfloxacin resistant Staphylococcus aureus 1199B overexpressing NorA assessed as bacterial growth inhibition incubated for 24 hrs by resazurin based microdilution assay. It is filed as functional.
Assay [23] deals with Staphylococcus aureus. Kind of assay: Antibacterial activity against Staphylococcus aureus ATCC 25923 assessed as bacterial growth inhibition incubated for 24 hrs by resazurin based microdilution assay. It is filed as functional.
For assay [24], the system named is Staphylococcus aureus. Nature of the assay: Antibacterial activity against Staphylococcus aureus 1199 assessed as bacterial growth inhibition incubated for 24 hrs by resazurin based microdilution assay. In kind it is functional.
For assay [25], the system named is Staphylococcus aureus. Kind of assay: Antibacterial activity against Staphylococcus aureus SA10 assessed as bacterial growth inhibition incubated for 24 hrs by resazurin based microdilution assay. It is filed as functional.
Assay [26] deals with Escherichia coli. Nature of the assay: Antibacterial activity against Escherichia coli ATCC […] assessed as bacterial growth inhibition incubated for 24 hrs by resazurin based microdilution assay. It is filed as functional.
The test system of assay [27] is Candida albicans. Kind of assay: Antifungal activity against Candida albicans NEWP031 assessed as bacterial growth inhibition incubated for 24 hrs by resazurin based microdilution assay. In kind it is functional.
For assay [28], the target named is T1, Quinolone resistance protein NorA (Staphylococcus aureus). Nature of the assay: Potentiation of EtBr-induced inhibition of NorA efflux in Staphylococcus aureus 1199B overexpressing NorA assessed as reduction in EtBr MIC at 256 ug/ml incubated for 24 hrs by resazurin based assay (Rvb= 32 ug/ml). The following applies: dose 256.0 µg/ml.
Assay [29] has the same target. Kind of assay: Potentiation of norfloxacin-induced inhibition of NorA efflux in Staphylococcus aureus 1199B overexpressing NorA assessed as reduction in norfloxacin MIC at 1/8 times of MIC incubated for 24 hrs by CLSI based assay (Rvb= 322.54 ug/ml).
The target in assay [30] is Multidrug export protein MepA (Staphylococcus aureus (strain NCTC 8325)) (UniProt Q2G140). Kind of assay: Potentiation of EtBr-induced inhibition of MepA efflux in Staphylococcus aureus K2068 overexpressing MepA assessed as reduction in EtBr MIC at 1/8 times of MIC incubated for 24 hrs by CLSI based assay (Rvb= 322.54 ug/ml).
In assay [31] the test system is Staphylococcus aureus. Kind of assay: Antibacterial activity against norfloxacin resistant Staphylococcus aureus IS-58 overexpressing TetK efflux pump gene assessed as bacterial growth inhibition incubated for 18 to 24 hrs by NCCLS protocol based microdilution method. Conditions: time 18-24 hrs. In kind it is functional.
Assay [32] has as its system Staphylococcus aureus. Nature of the assay: Antibacterial activity against norfloxacin resistant Staphylococcus aureus RN4220 overexpressing MsrA efflux pump gene assessed as bacterial growth inhibition incubated for 18 to 24 hrs by NCCLS protocol based microdilution method. In kind it is functional. The following applies: time 18-24 hrs.
Assay [33] has as its system Staphylococcus aureus. Kind of assay: Antibacterial activity against norfloxacin resistant Staphylococcus aureus 1199B overexpressing NorA efflux pump gene assessed as bacterial growth inhibition incubated for 18 to 24 hrs by NCCLS protocol based microdilution method. It is filed as functional. The following applies: time 18-24 hrs.
In assay [34] the target is T1, Quinolone resistance protein NorA (Staphylococcus aureus). Nature of the assay: Inhibition of NorA efflux pump in Staphylococcus aureus 1199B overexpressing NorA efflux pump assessed as reduction in EtBr MIC at 128 ug/ml using EtBr as substrate by resazurin based assay (Rvb= 32 ug/ml). The following applies: dose 128.0 µg/ml.

SMILES strings stand for the structures. In brackets after ≈: the same amount, converted by molar mass.

On to `CCN(CC)C(=O)/C=C/c1ccc(OC(C)=O)c(OC)c1`, for which the MIC in [1] was over 125 µg/mL; in [2], 4 µg/mL; in [4], 32 µg/mL. Also, the “fractional inhibitory concentration index (FICI)” value in assay [3] is 0.325.
For the molecule `COc1cc(O)cc2c1[C@@H](/C=C/c1ccc(O)cc1)[C@@H]1[C@@H](c3ccccc3)Oc3cc(O)ccc3[C@@H]1O2`, the MIC in [5], in [6], in assay [7] and in assay [8] was over 1020 µg/mL throughout.
`CC(C)/C=C/CCCCC(=O)NCc1ccc(O)c(OCc2nnc(Nc3cccc(Br)c3)o2)c1`: the MIC was determined as 0.5 µg/mL in [9] and 0.12 µg/mL in assay [10]. The MEC in assay [11] came to 12.5 µg/mL.
Regarding `C=C1CC/C=C(\C)CC[C@@H]2[C@@H]1CC2(C)C` [BETA-CARYOPHYLLENE], the MIC is at least 1020 µg/mL in assay [12], at least 1020 µg/mL in assay [13] and 32 µg/mL (≈ 157 µM) in assay [14].
Take `CN(CC[C@H](N)CC(=O)N[C@H]1C=C[C@H](n2ccc(N)nc2=O)O[C@@H]1C(=O)O)C(=N)N` [BLASTICIDIN_S]: the MIC in assay [15] was 50 µg/mL (≈ 118 µM); in assay [16] it was 100 µg/mL (≈ 237 µM); in assay [17], 25 µg/mL (≈ 59.2 µM); in [18] it was 100 µg/mL (≈ 237 µM); in assay [19] it was 25 µg/mL (≈ 59.2 µM); in assay [20], 200 µg/mL (≈ 473 µM). In [21], the MIC is 50 µg/mL (≈ 118 µM).
As for `C=CCc1ccc(OC)cc1` [ESTRAGOLE], the MIC was at least 1020 µg/mL in assay [22]; at least 1020 µg/mL in [23]; at least 1020 µg/mL in assay [24]; at least 1020 µg/mL in assay [25]; 2050 µg/mL (≈ 13800 µM) in [26]; 2050 µg/mL (≈ 13800 µM) in [27]. The values for the MIC in assay [28], in assay [29] and in assay [30] were 16 µg/mL, 256 µg/mL and 256 µg/mL, respectively.
As to `COc1c2ccoc2c(OC)c2oc(=O)ccc12` [ISOPIMPINELLIN], the MIC was over 256 µg/mL in assay [31], over 256 µg/mL in assay [32], over 256 µg/mL in assay [33] and 4 µg/mL in [34].
